{"source": "paper PMC5488423", "about": "“Prevention of dendritic and synaptic deficits and cognitive impairment with a neurotrophic compound” (Alzheimer's Research & Therapy, 2017)", "key": {"[1]": {"parameters": "method as in PMID 25046994", "conditions": "over 30 min; cited from earlier work"}, "[2]": {"parameters": "method as in PMID 25046994", "conditions": "cited from earlier work"}, "[3]": {"parameters": "method as in PMID 25046994", "conditions": "over 120 min; cited from earlier work"}, "[4]": {"parameters": "method as in PMID 25046994", "conditions": "cited from earlier work", "remark": "listed apart in the source"}, "3 × Tg-AD mice": {"system": "3 × Tg-AD mice", "assay": "Side effects and safety during chronic dietary treatment", "format": "in vivo, mouse", "conditions": "60 nmol P021/g feed in diet", "description": "At approximately 3 months of age, the animals were divided into three groups: one group of 3 × Tg-AD-P021 (n = 32) treated with 60 nmol P021/g feed in the diet; a second group of 3 × Tg-AD-vh (n = 35) treated with the same diet but without P021; and a third group of WT (n = 41) treated with the same diet but without P021. P021 was formulated by Research Diets (New Brunswick, NJ, USA). Food consumption was recorded every 2 weeks and body weight every month. The average mouse food consumption was ~2.7 g feed/day."}}, "note": "Residues, ends and D or L forms follow the SMILES beside them.", "data": [{"smiles": "CC(=O)N[C@@H](CC(=O)O)C(=O)NCC(=O)NCC(=O)N[C@@H](CC(C)C)C(=O)NC12CC3CC(C1)CC(C(N)=O)(C3)C2", "note": "[Peptide P021] (HELM PEPTIDE1{[ac].D.G.G.L.[NC(=O)C12CC3CC(CC(N[*:1])(C3)C1)C2]}$$$$V2.0)", "values": [{"measurement": "stability in artificial gastric juice", "setting": "[1]", "result": "> 95", "unit": "%"}, {"measurement": "plasma stability", "setting": "[2]", "result": "> 3", "unit": "h"}, {"measurement": "stability in intestinal fluid", "setting": "[3]", "result": "~ 100%"}, {"measurement": "blood–brain barrier permeability", "setting": "[4]", "result": "blood–brain barrier permeable"}, {"measurement": "side effects or safety issues", "setting": "3 × Tg-AD mice; preclinical study of almost 2 years", "result": "did not show any severe side effects or safety issues"}, {"measurement": "weight loss, tumors, or signs of pain", "setting": "3 × Tg-AD mice; treatment for around 18 months", "result": "did not show any weight loss, tumors, or signs of pain"}]}]}
